Test results reported in PMC6829517 (International Journal of Molecular Sciences, 2019).
In brackets after ≈: the same amount, converted by molar mass. Entries after “also recorded” stand apart in the source; their conditions may differ. Read-outs that look alike come from different tables or passages of the source. Positions of bridges follow the written chain, without caps; N, C: chain ends. Non-standard residues stand in square brackets, D forms with d. Residues, ends and D or L forms follow the SMILES beside them.

Tests used:
[1] = tested on: Bacterial biofilms; experiment: Minimal biofilm eradication concentration (MBEC); format: cell-based; settings: in all cases; peg-lid biofilms, MHBCA, 24 h exposure at 37 °C, OD 620 nm, triplicate
Procedure: MBEC was determined as described by Moskowitz et al.. Bacterial biofilms were formed by immersing the pegs of a modified polystyrene microtiter lid into 96-well microtiter plates, each containing 200 µL of Muller-Hinton broth cation adjusted (MHBCA), followed by incubation at 37 °C for 24 h. Pegs were then gently rinsed in a 0.9% w/v NaCl solution and biofilms were exposed to a range of concentrations of antimicrobials for 24 h at 37 °C. Pegs were again rinsed with a 0.9% w/v NaCl solution and biofilms were removed by 10 min sonication. Recovered bacteria were incubated for 24 h at 37 °C. Optical densities at 620 nm were measured in order to determine MBEC values, defined as the lowest concentration of antimicrobial that prevented bacterial regrowth from the treated biofilm. All experiments were performed in triplicate.

[2] = tested on: Escherichia coli MDR 208691; format: cell-based; settings: MDR 208691, 24 h
Procedure: (§1) All experiments were performed in triplicate.

[3] = tested on: Salmonella typhimurium SY5015; format: cell-based; settings: murium SY5015, 24 h
Procedure: as §1

[4] = tested on: Escherichia coli MDR 39255; format: cell-based; settings: MDR 39255, 24 h
Procedure: as §1

[5] = tested on: Escherichia coli MDR 239910; format: cell-based; settings: MDR 239910, 24 h
Procedure: as §1

[6] = tested on: Salmonella enterica ATCC 49214; settings: broth microdilution, MHB, 37 °C, 24 h, visual turbidity, triplicate
Procedure: (§2) MIC values were determined by the broth microdilution method and interpreted following the guidelines of the Clinical & Laboratory Standards Institute (CLSI) and European Committee on Antimicrobial Susceptibility Testing (EUCAST). The different strains were grown in Mueller-Hinton broth (MHB) overnight at 37 °C with shaking at 200 rpm. The bacterial cultures were then adjusted to OD625nm of 0.08–0.1 and diluted 1:100 in fresh MHB medium. Next, 5 µL of each diluted suspension was added to 96-well plates previously filled with MHB and serially diluted peptides. […] All experiments were performed in triplicate.

[7] = tested on: Salmonella enterica ATCC 13076; settings: broth microdilution, MHB, 37 °C, 24 h, visual turbidity, triplicate
Procedure: as §2

[8] = target: pepsin (Sus scrofa, UniProt P00791); settings: for Hydrolysis by pepsin at 37 °C: pepsin 1 mg/mL in HCl 0.01 M, pH 2, 37 °C, several hours, LC-MS; for Cleavage by pepsin at 50 °C: pH 2, 50 °C, 19 h, RP-HPLC
pepsin (Sus scrofa, UniProt P00791), sequence (P00791 60-385): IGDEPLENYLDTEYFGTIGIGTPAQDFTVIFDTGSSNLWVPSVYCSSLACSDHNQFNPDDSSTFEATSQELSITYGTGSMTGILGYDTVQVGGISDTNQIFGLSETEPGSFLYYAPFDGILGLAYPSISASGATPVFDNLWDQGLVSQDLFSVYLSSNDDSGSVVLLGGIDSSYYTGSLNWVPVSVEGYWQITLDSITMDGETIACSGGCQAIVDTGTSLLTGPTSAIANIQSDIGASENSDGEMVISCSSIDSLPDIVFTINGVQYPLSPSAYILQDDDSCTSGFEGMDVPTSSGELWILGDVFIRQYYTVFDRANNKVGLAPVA
Description: Materials and reagents. Methanol was purchased from Scharlau, while acetonitrile was obtained from SDS. NaOH, 2,2,2-trifluoroethanol, pepsin, thermolysin were obtained from Sigma-Aldrich, while carboxypeptidase Y was purchased from Alfa Aesar. E. coli BL21 (DE3), which was used for heterologous expression, was purchased from Invitrogen. Bacterial strains were isolated from clinical specimens in the Microbiology Service of the Hospital Universitari de Bellvitge (Spain).
Collistin sulfate was supplied by Zhejiang Shenghua Biok Biology Co. LTD, China. Mueller-Hinton Broth (MHB) was obtained from Scharlau (Spain). […]
Then, 30 µL of NaOH 0.5 M (pH 12) was added, and the mixture was stirred overnight at 40 °C. […]
Pepsin. Purified peptide (20 µg) was dissolved in 150 µL HCl 0.01 M (pH 2). 40 µL of pepsin solution in HCl 0.01 M (1 mg/mL) was added to the peptide solution and incubated for 2-20 h at […]

[9] = target: T1, thermolysin (Bacillus thermoproteolyticus, UniProt P00800); experiment: Thermolysin stability assay; format: in vitro ADME; settings: thermolysin 1 mg/mL, 50 mM Tris pH 8, 0.5 mM CaCl2, 30 min at 70 °C, LC-MS; loss of 137 Da (Val11-Gly12)
T1 construct: purchased Sigma-Aldrich
T1 sequence (P00800 233-548): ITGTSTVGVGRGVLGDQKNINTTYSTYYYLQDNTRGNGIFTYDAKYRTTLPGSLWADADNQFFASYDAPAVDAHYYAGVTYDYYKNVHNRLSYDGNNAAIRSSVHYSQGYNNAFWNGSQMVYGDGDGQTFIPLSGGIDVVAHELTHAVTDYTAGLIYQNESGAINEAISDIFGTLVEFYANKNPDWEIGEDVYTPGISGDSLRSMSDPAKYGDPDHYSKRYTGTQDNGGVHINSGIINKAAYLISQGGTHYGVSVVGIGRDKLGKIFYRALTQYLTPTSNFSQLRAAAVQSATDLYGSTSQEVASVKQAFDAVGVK
Procedure: Materials and reagents. Methanol was purchased from Scharlau, while acetonitrile was obtained […]
while carboxypeptidase Y was purchased from Alfa Aesar. E. coli BL21 (DE3), which was used for heterologous expression, was purchased from Invitrogen. Bacterial strains were isolated from […]
Hinton Broth (MHB) was obtained from Scharlau (Spain).
10 µL of 0.5 M NaOH was added.
LC-MS. […] For the isolation and […]
in 400 µL of H 2O-ACN (1:1). […]
was stirred overnight at 40 °C.
MES, 1 mM CaCl 2 at pH 6.75).
The reaction was quenched by
Pepsin. […] 40 µL of pepsin
Figure S6. RP-HPLC chromatograms and ESI + spectra after 30 min of thermolysin treatment at 70 °C in 50 mM TRIS pH 8, 0.5 mM CaCl 2 buffer. a) New compound, b) native MccJ25 and c) co-injection of the two peptides after the thermolysin cleavage. Conditions: XBridge C18 2.5 µm (4.6 mm x 75 mm) reversed-phase analytical column; linear gradient from 30% to 60% of ACN over 8 […]

[10] = cited from earlier work
Procedure: (§3) Moreover, it is stable to highly denaturing conditions, such as 8 M urea and temperatures above 100 °C [6].

[11] = tested on: chymotrypsin, trypsin and pepsin; settings: cited from earlier work
Procedure: as §3

[12] = tested on: eight Gram-negative strains; experiment: MIC, broth microdilution; format: cell-based; settings: all eight strains tested; summary of Table 1
Procedure: as §1

[13] = tested on: Escherichia coli MDR 246415; format: cell-based; settings: MDR 246415, 24 h
Procedure: as §1

[14] = tested on: trypsin; settings: cited from earlier work
[15] = tested on: carboxypeptidase Y; experiment: carboxypeptidase Y solution in MES buffer (50 mM MES, 1 mM CaCl2 at pH 6.75); settings: 25 °C, up to 4 h
[16] = tested on: thermolysin; experiment: thermolysin in 50 mM TRIS pH 8, 0.5 mM CaCl2 buffer; settings: 70 °C, up to 30 min
[17] = tested on: pepsin; experiment: pepsin solution in HCl 0.01 M (pH 2); settings: 37 °C, up to 2-20 h
[18] = tested on: chymotrypsin; settings: cited from earlier work
[19] = 0.5 M NaOH in H2O-ACN (1:1); settings: 40 °C, up to 48 h
[20] = tested on: pepsin; experiment: pepsin, temperature increased to 50 °C; settings: up to 19 h
[21] = tested on: pepsin; settings: cited from earlier work

| cleaved bond [15] | cleaved bond [16] | not cleaved [20] | Compound | Minimal biofilm eradication concentration (MBEC) [1] | Minimum inhibitory concentration (MIC) [2] [µg/mL] | Minimum inhibitory concentration (MIC) [3] [µg/mL] | Minimum inhibitory concentration (MIC) [4] [µg/mL] | Minimum inhibitory concentration (MIC) [5] [µg/mL] | Hydrolysis by pepsin at 37 °C [8] | Cleavage by pepsin at 50 °C [8] | Outcome of thermolysin treatment [9] | not cleaved [17] | also measured |
| --- | --- | --- | --- | --- | --- | --- | --- | --- | --- | --- | --- | --- | --- |
|  |  |  | CC[C@H](C)[C@H](NC(=O)CNC(=O)[C@@H](NC(=O)[C@H](Cc1ccccc1)NC(=O)[C@H](Cc1ccc(O)cc1)NC(=O)[C@@H]1CCC(=O)NCC(=O)NCC(=O)N[C@@H](C)C(=O)NCC(=O)N[C@@H](Cc2c[nH]cn2)C(=O)N[C@@H](C(C)C)C(=O)N2CCC[C@H]2C(=O)N1)C(C)C)C(=O)NCC(=O)N[C@H](C(=O)N1CCC[C@H]1C(=O)N[C@H](C(=O)N[C@@H](CO)C(=O)N[C@@H](Cc1ccccc1)C(=O)N[C@@H](Cc1ccc(O)cc1)C(=O)NCC(=O)O)[C@@H](C)CC)[C@@H](C)O [Native MccJ25, Microcin J25] (GGAGHVPEYFVGIGTPISFYG-OH; lactam N-8) | greater than 128 μg/mL | >128 | >128 | 0.5 (≈ 0.237 µM) | >128 |  |  |  |  | Minimum inhibitory concentration (MIC) [6]: 0.8 µg/mL (≈ 0.38 µM); Minimum inhibitory concentration (MIC) [7]: <0.0625 µg/mL |
|  |  |  | CC[C@H](C)[C@H](NC(=O)CNC(=O)[C@@H](NC(=O)[C@H](Cc1ccccc1)NC(=O)[C@H](Cc1ccc(O)cc1)NC(=O)[C@@H]1CCC(=O)NCC(=O)NCC(=O)N[C@@H](C)C(=O)NCC(=O)N[C@@H](Cc2cnc[nH]2)C(=O)N[C@@H](C(C)C)C(=O)N2CCC[C@H]2C(=O)N1)C(C)C)C(=O)NCC(=O)N[C@H](C(=O)N1CCC[C@H]1C(=O)N[C@H](C(=O)N[C@@H](CO)C(=O)N[C@@H](Cc1ccccc1)C(=O)N[C@@H](Cc1ccc(O)cc1)C(=O)NCC(=O)O)[C@@H](C)CC)[C@@H](C)O [Native MccJ25, Microcin J25] (GGAGHVPEYFVGIGTPISFYG-OH; lactam N-8) |  |  |  |  |  | no hydrolysis was observed | no cleavage was detected | double cleavage between Phe10-Val11 and Gly12-Ile13 |  | Stability to highly denaturing conditions [10]: stable; Thermal and proteolytic stability against several proteases [11]: high thermal and proteolytic stability |
|  |  |  | CC[C@H](C)[C@H](NC(=O)CNC(=O)[C@H](NC(=O)[C@H](Cc1ccccc1)NC(=O)[C@H](Cc1ccc(O)cc1)NC(=O)[C@@H]1CCC(=O)NCC(=O)NCC(=O)N[C@@H](C)C(=O)NCC(=O)N[C@@H](Cc2c[nH]cn2)C(=O)N[C@@H](C(C)C)C(=O)N2CCC[C@H]2C(=O)N1)C(C)C)C(=O)NCC(=O)N[C@H](C(=O)N1CCC[C@H]1C(=O)N[C@H](C(=O)N[C@@H](CO)C(=O)N[C@@H](Cc1ccccc1)C(=O)N[C@@H](Cc1ccc(O)cc1)C(=O)NCC(=O)O)[C@@H](C)CC)[C@@H](C)O [New Compound] (GGAGHVPEYF[dV]GIGTPISFYG-OH; lactam N-8) | greater than 128 μg/mL | >128 | >128 | >256 | >128 | no hydrolysis was observed | no cleavage was detected | double cleavage between Phe10-Val11 and Gly12-Ile13 |  | MIC values in all cases [12]: higher than 128 μg/mL; Minimum inhibitory concentration (MIC) [13]: >128 µg/mL |
| Phe10-Val11; also recorded: Val11-Gly12 | Gly12-Ile13; also recorded: Phe10-Val11 | no cleavage was detected after 19 h | GGAGHVPEYFVGIGTPISFYG [MccJ25] |  |  |  |  |  |  |  |  | no hydrolysis was observed, even after several hours at pH 2 at 37 °C | not cleaved [14]: high thermal and proteolytic stability; not cleaved [18]: high thermal and proteolytic stability; fragment found [19]: new compound (epimerization of Val11); not cleaved [21]: high thermal and proteolytic stability |
| Phe10-Val11; also recorded: Val11-Gly12 | Phe10-Val11; also recorded: Gly12-Ile13 | no cleavage was detected after 19 h | GGAGHVPEYFVGIGTPISFYG [new compound] |  |  |  |  |  |  |  |  | no hydrolysis was observed, even after several hours at pH 2 at 37 °C |  |
